Assay results reported in ChEMBL document CHEMBL6096675 (J Med Chem, 2025).
Calls of active or inactive are those of the source. No cut-off for these calls is given here.

Assays:
[1] = target: Cytochrome P450 3A4 (Homo sapiens, UniProt P08684); assay: Inhibition of CYP3A4 (unknown origin) using midazolam as substrate; type: ADME
[2] = Plasma concentration in mouse xenografted with human MV4-11 cells at 30 mg/kg, iv single dose measured after 168 hrs by LC-MS/MS analysis; type: ADME, organism-based
[3] = Plasma concentration in mouse xenografted with human MV4-11 cells at 30 mg/kg, iv single dose measured after 96 hrs by LC-MS/MS analysis; type: ADME, organism-based
[4] = system: SK-MEL-28; assay: Antiproliferative activity against human SMARCA4-wild type SK-MEL-28 cells assessed as inhibition of cell growth measured after 7 days by WST-8 assay; type: functional; conditions: SK-MEL-28, 168 h, time 7 day
[5] = Plasma stability in rat plasma assessed as half life; type: ADME, cell-free
[6] = Drug uptake in tumor of human NCI-H838 cells xenografted SCID mouse model at 10 mg/kg, iv measured after 48 hrs by LC-MS/MS analysis; type: ADME, organism-based, Neoplasm; conditions: read-out: Drug uptake
[7] = system: NCI-H838; assay: In vivo anti-tumor activity against SMARCA4-deficient human NCI-H838 cells xenografted in SCID mouse assessed as assessed as inhibition of tumor growth at 10 to 30 mg/kg, iv weekly once; type: functional, organism-based; conditions: dose 10-30 mg/kg
[8] = Antiproliferative activity against human […] NCI-H1975 cells assessed as maximal inhibition of cell growth measured after 7 days by WST-8 assay relative to control; type: functional; conditions: time 7 day
[9] = Drug uptake in tumor of mouse xenografted with human MV4-11 cells at 30 mg/kg, iv single dose measured after 24 hrs by LC-MS/MS analysis; type: ADME, organism-based, Neoplasm; conditions: read-out: Drug uptake
[10] = Drug uptake in tumor of mouse xenografted with human H838 cells at 10 mg/kg, iv single dose measured after 48 hrs by LC-MS/MS analysis; type: ADME, organism-based, Neoplasm, NCI-H838; conditions: read-out: Drug uptake
[11] = Plasma stability in mouse plasma assessed as half life; type: ADME, cell-free
[12] = Plasma concentration in SCID mouse xenografted with human NCI-H838 cells at 10 mg/kg, iv measured after 24 hrs by LC-MS/MS analysis; type: ADME, organism-based
[13] = target: SWI/SNF-related matrix-associated actin-dependent regulator of chromatin subfamily A member 2 (Homo sapiens, UniProt P51531); assay: Inhibition of human SMARCA2 by TR-FRET assay
[14] = Antiproliferative activity against human […] NCI-H1975 cells assessed as inhibition of cell growth measured after 7 days by WST-8 assay; type: functional; conditions: NCI-H1975, 168 h, time 7 day
[15] = Volume of distribution of steady state in rat at 1 mg/kg, iv; type: ADME, organism-based; conditions: in vivo, read-out: Vdss
[16] = Plasma concentration in mouse xenografted with human H838 cells at 10 mg/kg, iv single dose measured after 6 hrs by LC-MS/MS analysis; type: ADME, organism-based, NCI-H838
[17] = Plasma concentration in SCID mouse xenografted with human NCI-H838 cells at 10 mg/kg, iv measured after 48 hrs by LC-MS/MS analysis; type: ADME, organism-based
[18] = Antiproliferative activity against human SMARCA4-deficient NCI-H1944 cells assessed as maximal inhibition of cell growth measured after 7 days by WST-8 assay relative to control; type: functional; conditions: time 7 day
[19] = Antiproliferative activity against human SMARCA4-deficient NCI-H1568 cells assessed as inhibition of cell growth measured after 7 days by WST-8 assay; type: functional; conditions: NCI-H1568, 168 h, time 7 day
[20] = target: T1, Cytochrome P450 1A2 (Homo sapiens, UniProt P05177); assay: Inhibition of CYP1A2 (unknown origin); type: ADME
T1 sequence (P05177 whole entry): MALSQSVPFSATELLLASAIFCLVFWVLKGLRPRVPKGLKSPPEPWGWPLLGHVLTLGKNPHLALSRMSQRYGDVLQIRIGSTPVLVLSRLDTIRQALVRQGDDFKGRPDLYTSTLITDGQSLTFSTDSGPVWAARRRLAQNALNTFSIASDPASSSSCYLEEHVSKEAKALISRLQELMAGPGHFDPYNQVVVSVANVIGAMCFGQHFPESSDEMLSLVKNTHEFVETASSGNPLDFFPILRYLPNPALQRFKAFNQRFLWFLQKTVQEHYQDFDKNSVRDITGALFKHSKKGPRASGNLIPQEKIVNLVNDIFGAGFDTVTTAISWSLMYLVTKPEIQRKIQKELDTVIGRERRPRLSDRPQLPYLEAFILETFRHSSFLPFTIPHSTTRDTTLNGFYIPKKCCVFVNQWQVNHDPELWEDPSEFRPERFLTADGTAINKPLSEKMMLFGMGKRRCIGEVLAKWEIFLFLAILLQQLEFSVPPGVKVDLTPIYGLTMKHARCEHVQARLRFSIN

[21] = Plasma concentration in mouse xenografted with human H838 cells at 10 mg/kg, iv single dose measured after 168 hrs by LC-MS/MS analysis; type: ADME, organism-based, NCI-H838; conditions: in vivo
[22] = Drug uptake in tumor of mouse xenografted with human MV4-11 cells at 30 mg/kg, iv single dose measured after 168 hrs by LC-MS/MS analysis; type: ADME, organism-based, Neoplasm; conditions: read-out: Drug uptake
[23] = Metabolic stability in human liver microsomes assessed as half life; type: ADME, Microsome
[24] = target: Cytochrome P450 2D6 (Homo sapiens, UniProt P10635); assay: Inhibition of CYP2D6 (unknown origin); type: ADME
[25] = system: NCI-H838; assay: In vivo anti-tumor activity against human NCI-H838 cells xenografted in SCID mouse assessed as assessed as inhibition of tumor growth at 10 mg/kg, iv treated for 3 weeks measured after treatment stop; type: functional, organism-based
[26] = system: NCI-H1792; assay: Antiproliferative activity against human SMARCA4-wild type NCI-H1792 cells assessed as maximal inhibition of cell growth measured after 7 days by WST-8 assay relative to control; type: functional; conditions: time 7 day
[27] = system: SK-MEL-5; assay: Antiproliferative activity against human SMARCA4-deficient SK-MEL-5 cells assessed as inhibition of cell growth measured after 7 days by WST-8 assay; type: functional; conditions: SK-MEL-5, 168 h, time 7 day
[28] = Cmax in rat at 1 mg/kg, iv; type: ADME, organism-based; conditions: in vivo
[29] = system: NCI-H838; assay: In vivo anti-tumor activity against human NCI-H838 cells xenografted in SCID mouse assessed as assessed as inhibition of tumor growth at 10 mg/kg, iv measured after 3 weeks relative to control; type: functional; conditions: NCI-H838, 504 h, read-out: TGI
[30] = Clearance in mouse at 1 mg/kg, iv; type: ADME, organism-based; conditions: in vivo
[31] = system: SK-MEL-28; assay: Antiproliferative activity against human SMARCA4-wild type SK-MEL-28 cells assessed as maximal inhibition of cell growth measured after 7 days by WST-8 assay relative to control; type: functional; conditions: time 7 day
[32] = Volume of distribution of steady state in mouse at 1 mg/kg, iv; type: ADME, organism-based; conditions: in vivo, read-out: Vdss
[33] = Drug uptake in tumor of mouse xenografted with human H838 cells at 10 mg/kg, iv single dose measured after 168 hrs by LC-MS/MS analysis; type: ADME, organism-based, Neoplasm, NCI-H838; conditions: read-out: Drug uptake
[34] = Antiproliferative activity against human SMARCA4-deficient NCI-H838 cells assessed as inhibition of cell growth measured after 7 days by WST-8 assay; type: functional; conditions: NCI-H838, 168 h, time 7 day

Cytochrome P450 2D6, sequence (P10635 whole entry): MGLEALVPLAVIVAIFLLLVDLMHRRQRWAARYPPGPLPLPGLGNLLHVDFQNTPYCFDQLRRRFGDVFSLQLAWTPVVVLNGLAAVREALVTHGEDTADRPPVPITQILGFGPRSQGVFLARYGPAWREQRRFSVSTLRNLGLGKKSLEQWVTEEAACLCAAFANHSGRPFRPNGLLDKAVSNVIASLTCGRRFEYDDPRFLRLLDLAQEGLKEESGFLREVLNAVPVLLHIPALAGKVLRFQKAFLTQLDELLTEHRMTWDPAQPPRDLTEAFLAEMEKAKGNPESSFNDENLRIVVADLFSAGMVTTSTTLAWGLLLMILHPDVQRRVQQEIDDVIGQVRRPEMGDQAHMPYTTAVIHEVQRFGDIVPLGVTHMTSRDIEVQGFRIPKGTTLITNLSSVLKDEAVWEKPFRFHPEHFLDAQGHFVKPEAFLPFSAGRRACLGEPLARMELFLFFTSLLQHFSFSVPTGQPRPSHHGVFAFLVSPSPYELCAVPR
SWI/SNF-related matrix-associated actin-dependent regulator of chromatin subfamily A member 2, sequence (P51531 whole entry): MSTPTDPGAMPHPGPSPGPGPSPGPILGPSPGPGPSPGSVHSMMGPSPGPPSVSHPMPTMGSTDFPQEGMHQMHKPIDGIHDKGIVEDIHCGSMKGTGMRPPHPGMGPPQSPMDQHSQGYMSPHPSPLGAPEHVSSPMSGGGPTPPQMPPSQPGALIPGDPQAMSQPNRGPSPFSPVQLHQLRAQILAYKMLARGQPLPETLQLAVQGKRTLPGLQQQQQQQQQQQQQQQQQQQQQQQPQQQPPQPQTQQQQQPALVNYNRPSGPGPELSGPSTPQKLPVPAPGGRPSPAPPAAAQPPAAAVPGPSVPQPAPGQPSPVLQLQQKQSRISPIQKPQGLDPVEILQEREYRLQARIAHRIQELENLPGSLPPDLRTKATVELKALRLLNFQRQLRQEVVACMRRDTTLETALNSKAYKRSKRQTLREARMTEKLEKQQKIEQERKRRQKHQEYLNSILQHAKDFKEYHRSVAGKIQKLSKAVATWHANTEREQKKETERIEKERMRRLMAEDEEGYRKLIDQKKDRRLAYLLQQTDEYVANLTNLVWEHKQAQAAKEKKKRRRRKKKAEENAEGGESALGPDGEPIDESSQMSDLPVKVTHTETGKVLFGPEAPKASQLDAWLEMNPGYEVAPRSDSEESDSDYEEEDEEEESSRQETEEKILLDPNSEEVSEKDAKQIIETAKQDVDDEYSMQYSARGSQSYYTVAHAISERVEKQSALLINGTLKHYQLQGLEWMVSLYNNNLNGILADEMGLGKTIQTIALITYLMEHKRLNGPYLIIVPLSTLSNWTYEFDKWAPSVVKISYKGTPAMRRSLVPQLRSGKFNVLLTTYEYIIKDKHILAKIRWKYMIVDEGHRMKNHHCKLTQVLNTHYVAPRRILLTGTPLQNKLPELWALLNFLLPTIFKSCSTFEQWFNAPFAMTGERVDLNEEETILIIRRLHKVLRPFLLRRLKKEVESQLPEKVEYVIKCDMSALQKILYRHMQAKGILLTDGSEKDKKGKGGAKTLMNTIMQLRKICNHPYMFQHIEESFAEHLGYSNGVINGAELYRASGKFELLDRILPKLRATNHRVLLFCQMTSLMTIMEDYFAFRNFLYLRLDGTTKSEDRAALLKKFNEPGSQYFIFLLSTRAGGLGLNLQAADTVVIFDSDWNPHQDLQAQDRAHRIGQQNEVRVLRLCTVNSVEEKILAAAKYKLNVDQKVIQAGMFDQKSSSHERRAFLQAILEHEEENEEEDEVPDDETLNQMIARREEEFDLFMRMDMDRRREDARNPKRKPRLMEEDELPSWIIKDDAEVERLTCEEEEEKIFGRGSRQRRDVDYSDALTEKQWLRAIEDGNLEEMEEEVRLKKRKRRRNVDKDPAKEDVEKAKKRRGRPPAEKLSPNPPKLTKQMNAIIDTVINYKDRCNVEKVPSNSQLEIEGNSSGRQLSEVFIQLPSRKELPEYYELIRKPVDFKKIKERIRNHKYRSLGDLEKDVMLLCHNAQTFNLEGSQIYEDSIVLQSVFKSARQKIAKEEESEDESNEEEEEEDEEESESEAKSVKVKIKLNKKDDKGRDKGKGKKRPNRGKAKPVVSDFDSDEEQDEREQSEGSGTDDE
Cytochrome P450 3A4, sequence (P08684 whole entry): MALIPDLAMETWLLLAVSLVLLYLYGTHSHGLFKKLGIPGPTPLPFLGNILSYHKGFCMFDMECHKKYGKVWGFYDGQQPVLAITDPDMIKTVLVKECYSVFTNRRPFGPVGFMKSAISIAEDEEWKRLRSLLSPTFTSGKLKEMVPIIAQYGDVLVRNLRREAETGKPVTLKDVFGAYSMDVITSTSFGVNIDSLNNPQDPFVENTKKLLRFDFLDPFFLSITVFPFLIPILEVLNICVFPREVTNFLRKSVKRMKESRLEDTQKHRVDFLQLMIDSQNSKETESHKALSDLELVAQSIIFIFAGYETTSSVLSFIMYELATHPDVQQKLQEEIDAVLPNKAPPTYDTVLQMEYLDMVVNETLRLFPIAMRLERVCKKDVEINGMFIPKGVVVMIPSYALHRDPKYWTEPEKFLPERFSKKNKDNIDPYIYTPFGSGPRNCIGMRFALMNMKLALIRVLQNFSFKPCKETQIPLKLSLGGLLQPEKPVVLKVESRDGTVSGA

Cc1ncsc1-c1ccc([C@H](CN2CCOCC2)NC(=O)[C@@H]2C[C@@H](O)CN2C(=O)[C@@H](n2cc([C@H]3CC[C@H](CN4CCC(c5ccc6c(c5)-n5c(nc(=O)c7c(Cl)cccc75)C65CCCCC5)CC4)CC3)nn2)C(C)(C)C)cc1
IC50 [1]: > 100000 nM
concentration at 168 h [2]: 19 ng/mL
concentration at 96 h [3]: 56 ng/mL
GI50 [4]: > 10000 nM
half-life [5]: > 2 h
concentration at 48 h [6]: 437 ng/mL
Activity [7]: Active
Imax [8]: 65%
concentration at 24 h [9]: 2290 ng/mL
concentration at 48 h [10]: 437 ng/mL
half-life [11]: > 2 h
concentration at 24 h [12]: 50 ng/mL
IC50 [13]: 42.2 nM
GI50 [14]: > 10000 nM
Vd [15]: 0.9 L/kg
concentration at 6 h [16]: 585 ng/mL
concentration at 48 h [17]: 15 ng/mL
Imax [18]: 71%
GI50 [19]: 2.2 nM
IC50 [20]: > 100000 nM
Cp [21]: Below_limit_of_detection
concentration at 168 h [22]: 932 ng/mL
half-life [23]: > 1 h
IC50 [24]: > 100000 nM
Activity [25]: inactive
Imax [26]: 80%
GI50 [27]: 1.5 nM
Cmax [28]: 2420 ng/mL
inhibition in vivo at 10 mg/kg [29]: 87%
clearance [30]: 9.2 mL/min/kg
Imax [31]: 55%
Vd [32]: 1.9 L/kg
concentration at 168 h [33]: 169 ng/mL
GI50 [34]: 9.5 nM
